Assay results from patent US12187723B2 (BRISTOL-MYERS SQUIBB COMPANY, priority 2019, dated 2025).

Experiments:
[1] = molecular target: T1, human TLR9 (Homo sapiens, UniProt Q9NR96); assay: TLR9 inhibition reporter assay (HEK-Blue SEAP); format: cell-based; conditions: HEK-Blue cells overexpressing human TLR9, ODN2006 5 nM, 22 hour incubation
T1 construct: host or cells: HEK-Blue cells
T1 sequence (Q9NR96 26-1032): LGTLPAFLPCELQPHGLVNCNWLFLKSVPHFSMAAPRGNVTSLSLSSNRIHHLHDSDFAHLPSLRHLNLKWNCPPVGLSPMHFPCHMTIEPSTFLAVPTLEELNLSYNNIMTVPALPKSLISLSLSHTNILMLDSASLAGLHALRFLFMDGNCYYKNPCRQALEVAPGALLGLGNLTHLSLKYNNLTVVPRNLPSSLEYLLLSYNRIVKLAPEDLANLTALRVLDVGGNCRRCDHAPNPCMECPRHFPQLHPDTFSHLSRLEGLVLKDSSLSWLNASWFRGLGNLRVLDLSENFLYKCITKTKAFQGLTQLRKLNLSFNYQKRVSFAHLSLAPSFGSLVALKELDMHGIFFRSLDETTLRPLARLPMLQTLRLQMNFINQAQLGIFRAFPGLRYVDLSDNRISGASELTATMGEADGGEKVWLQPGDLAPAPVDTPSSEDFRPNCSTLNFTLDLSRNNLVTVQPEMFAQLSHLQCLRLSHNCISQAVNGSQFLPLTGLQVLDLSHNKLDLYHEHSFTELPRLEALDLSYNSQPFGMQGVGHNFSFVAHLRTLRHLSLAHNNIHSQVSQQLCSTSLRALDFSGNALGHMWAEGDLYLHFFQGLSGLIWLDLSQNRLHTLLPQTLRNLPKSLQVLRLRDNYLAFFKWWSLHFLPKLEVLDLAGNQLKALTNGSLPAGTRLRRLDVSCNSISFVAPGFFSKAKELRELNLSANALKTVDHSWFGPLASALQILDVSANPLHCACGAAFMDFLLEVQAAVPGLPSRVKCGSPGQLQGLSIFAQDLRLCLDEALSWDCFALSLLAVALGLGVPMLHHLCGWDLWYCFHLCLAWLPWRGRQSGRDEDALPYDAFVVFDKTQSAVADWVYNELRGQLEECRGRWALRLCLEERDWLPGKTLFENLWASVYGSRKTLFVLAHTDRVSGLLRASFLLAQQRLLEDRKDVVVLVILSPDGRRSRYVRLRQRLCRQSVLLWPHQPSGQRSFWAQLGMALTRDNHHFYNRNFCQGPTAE
Summary of the method: (§1)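 Dose–response from 0.05 nM to 50 μM was run in HEK-Blue human TLR7, TLR8 and TLR9 reporter cells. After 30 min at room temperature with compound, ligand was added (TLR7 gardiquimod 7.5 μM; TLR8 R848 15.9 μM; TLR9 ODN2006 5 nM) and SEAP measured next day, at 22 h.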

[2] = molecular target: T2, human TLR8 (Homo sapiens, UniProt Q9NR97); assay: TLR8 inhibition reporter assay (HEK-Blue SEAP); format: cell-based; conditions: HEK-Blue cells overexpressing human TLR8, R848 15.9 μM, 22 hour incubation
T2 construct: host or cells: HEK-Blue cells
T2 sequence (Q9NR97 27-1041): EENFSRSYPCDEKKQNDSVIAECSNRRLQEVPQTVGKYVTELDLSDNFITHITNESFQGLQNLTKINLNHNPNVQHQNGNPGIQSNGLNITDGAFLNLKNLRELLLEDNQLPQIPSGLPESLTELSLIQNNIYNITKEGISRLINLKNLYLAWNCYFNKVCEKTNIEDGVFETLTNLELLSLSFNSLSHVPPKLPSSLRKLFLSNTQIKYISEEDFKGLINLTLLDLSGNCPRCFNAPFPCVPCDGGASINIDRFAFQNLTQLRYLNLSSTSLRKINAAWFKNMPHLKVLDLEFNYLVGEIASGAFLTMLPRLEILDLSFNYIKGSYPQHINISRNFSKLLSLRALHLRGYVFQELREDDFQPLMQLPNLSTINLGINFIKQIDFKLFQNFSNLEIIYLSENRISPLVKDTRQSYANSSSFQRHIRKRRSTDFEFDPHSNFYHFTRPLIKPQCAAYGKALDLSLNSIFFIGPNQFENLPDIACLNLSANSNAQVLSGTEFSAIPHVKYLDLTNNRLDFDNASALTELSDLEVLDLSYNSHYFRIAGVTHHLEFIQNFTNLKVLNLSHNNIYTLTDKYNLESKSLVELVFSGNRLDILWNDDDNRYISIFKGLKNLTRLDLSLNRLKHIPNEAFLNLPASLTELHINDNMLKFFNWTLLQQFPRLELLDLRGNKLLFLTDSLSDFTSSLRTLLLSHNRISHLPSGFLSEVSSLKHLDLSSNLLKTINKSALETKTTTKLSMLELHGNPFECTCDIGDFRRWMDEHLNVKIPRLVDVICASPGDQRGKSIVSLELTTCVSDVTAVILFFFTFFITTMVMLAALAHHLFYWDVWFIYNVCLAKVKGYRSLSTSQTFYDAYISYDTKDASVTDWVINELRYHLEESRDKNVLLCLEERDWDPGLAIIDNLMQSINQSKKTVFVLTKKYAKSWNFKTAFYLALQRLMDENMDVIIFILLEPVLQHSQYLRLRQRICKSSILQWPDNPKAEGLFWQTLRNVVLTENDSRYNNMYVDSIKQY
Summary of the method: as §1

Compound	IC50 [1]	IC50 [2]
CCCN1CCC(n2c(=O)[nH]c3cc(-c4cc(OC)c5ncnn5c4)ccc32)CC1 [Example 76, 5-(8-methoxy-[1,2,4]triazolo[1,5-a]pyridin-6-yl)-1-(1-propylpiperidin-4-yl)-1,3-dihydro-2H-benzo[d]imidazol-2-one]	1.71 µM	251 nM
COc1cc(-c2ccc3c(c2)[nH]c(=O)n3C2CCN(C(C)C)CC2)cn2ncnc12 [Example 77, 1-(1-isopropylpiperidin-4-yl)-5-(8-methoxy-[1,2,4]triazolo[1,5-a]pyridin-6-yl)-1,3-dihydro-2H-benzo[d]imidazol-2-one]	0.417 µM	> 3130 nM
Cc1cc2c(cc1-c1cc(C)c3ncnn3c1)[nH]c(=O)n2[C@@H]1CCCN(CC2CCOC2)C1 (stereo partly drawn) [Example 43, 6-methyl-5-(8-methyl-[1,2,4]triazolo[1,5-a]pyridin-6-yl)-1-((3R)-1-((tetrahydrofuran-3-yl)methyl)piperidin-3-yl)-1,3-dihydro-2H-benzo[d]imidazol-2-one]	16.5 µM	57.7 nM
CNC(=O)CN1CCC(n2c(=O)[nH]c3cc(-c4cc(OC)c5ncnn5c4)c(C)cc32)CC1 [Example 87, 2-(4-(5-(8-methoxy-[1,2,4]triazolo[1,5-a]pyridin-6-yl)-6-methyl-2-oxo-2,3-dihydro-1H-benzo[d]imidazol-1-yl)piperidin-1-yl)-N-methylacetamide]	22.4 µM	377 nM
COc1ncc(CN2CCC[C@H](n3c(=O)[nH]c4cc(-c5cc(C)c6ncnn6c5)c(C)cc43)C2)cn1 [Example 36, (S)-1-(1-((2-methoxypyrimidin-5-yl)methyl)piperidin-3-yl)-6-methyl-5-(8-methyl-[1,2,4]triazolo[1,5-a]pyridin-6-yl)-1,3-dihydro-2H-benzo[d]imidazol-2-one]	30.6 µM	37.5 nM
COc1cc(-c2cc3[nH]c(=O)n([C@H]4CC[C@@H](NC5CCCC5)CC4)c3cc2C)cn2ncnc12 [Example 65, 1-((1s,4s)-4-(cyclopentylamino)cyclohexyl)-5-(8-methoxy-[1,2,4]triazolo[1,5-a]pyridin-6-yl)-6-methyl-1,3-dihydro-2H-benzo[d]imidazol-2-one]	3.44 µM	1.7 nM
Cc1cc2c(cc1-c1cc(C)c3ncnn3c1)[nH]c(=O)n2[C@H]1CC[C@@H](NCC(C)(C)C)CC1 [Example 32, 6-methyl-5-(8-methyl-[1,2,4]triazolo[1,5-a]pyridin-6-yl)-1-((1s,4s)-4-(neopentylamino)cyclohexyl)-1,3-dihydro-2H-benzo[d]imidazol-2-one]	2.34 µM	0.61 nM
COc1cc(-c2cc3[nH]c(=O)n([C@@H]4CCCN(CCC(F)(F)F)C4)c3cc2C)cn2ncnc12 [Example 68, (R)-5-(8-methoxy-[1,2,4]triazolo[1,5-a]pyridin-6-yl)-6-methyl-1-(1-(3,3,3-trifluoropropyl)piperidin-3-yl)-1,3-dihydro-2H-benzo[d]imidazol-2-one]	27.1 µM	121 nM
COc1cc(-c2cc3[nH]c(=O)n([C@H]4CC[C@@H](NCC5CCCCC5)CC4)c3cc2C)cn2ncnc12 [Example 66, 1-((1s,4s)-4-((cyclohexylmethyl)amino)cyclohexyl)-5-(8-methoxy-[1,2,4]triazolo[1,5-a]pyridin-6-yl)-6-methyl-1,3-dihydro-2H-benzo[d]imidazol-2-one]	2.05 µM	0.66 nM
Cc1cc(-c2ccc3c(c2)[nH]c(=O)n3C2CCN(CC(=O)N(C)C)CC2)cn2ncnc12 [Example 90, N,N-dimethyl-2-(4-(5-(8-methyl-[1,2,4]triazolo[1,5-a]pyridin-6-yl)-2-oxo-2,3-dihydro-1H-benzo[d]imidazol-1-yl)piperidin-1-yl)acetamide]	14.6 µM	> 3130 nM
COc1cc(-c2cc3[nH]c(=O)n([C@H]4CC[C@@H](NC5CCCCC5)CC4)c3cc2C)cn2ncnc12 [Example 62, 1-((1s,4s)-4-(cyclohexylamino)cyclohexyl)-5-(8-methoxy-[1,2,4]triazolo[1,5-a]pyridin-6-yl)-6-methyl-1,3-dihydro-2H-benzo[d]imidazol-2-one]	2.35 µM	1.85 nM
COc1cc(-c2cc3[nH]c(=O)n([C@@H]4CCCN(CC5CCOCC5)C4)c3cc2C)cn2ncnc12 [Example 57, (R)-5-(8-methoxy-[1,2,4]triazolo[1,5-a]pyridin-6-yl)-6-methyl-1-(1-((tetrahydro-2H-pyran-4-yl)methyl)piperidin-3-yl)-1,3-dihydro-2H-benzo[d]imidazol-2-one]	5.94 µM	8.87 nM
Cc1cc2c(cc1-c1cc(C)c3ncnn3c1)[nH]c(=O)n2[C@@H]1CCCN(CC2CCCC2)C1 [Example 47, (R)-1-(1-(cyclopentylmethyl)piperidin-3-yl)-6-methyl-5-(8-methyl-[1,2,4]triazolo[1,5-a]pyridin-6-yl)-1,3-dihydro-2H-benzo[d]imidazol-2-one]	3.62 µM	32.8 nM
CCCN1CCC[C@@H](n2c(=O)[nH]c3cc(-c4cc(OC)c5ncnn5c4)c(C)cc32)C1 [Example 54, (R)-5-(8-methoxy-[1,2,4]triazolo[1,5-a]pyridin-6-yl)-6-methyl-1-(1-propylpiperidin-3-yl)-1,3-dihydro-2H-benzo[d]imidazol-2-one]	4.23 µM	24 nM
CCC(CC)CN1CCC(n2c(=O)[nH]c3cc(-c4cc(OC)c5ncnn5c4)ccc32)CC1 [Example 75, 1-(1-(2-ethylbutyl)piperidin-4-yl)-5-(8-methoxy-[1,2,4]triazolo[1,5-a]pyridin-6-yl)-1,3-dihydro-2H-benzo[d]imidazol-2-one]	2.78 µM	1490 nM
Cc1cc2c(cc1-c1cc(C)c3ncnn3c1)[nH]c(=O)n2[C@H]1CCCN(CC(N)=O)C1 [Example 92, (S)-2-(3-(6-methyl-5-(8-methyl-[1,2,4]triazolo[1,5-a]pyridin-6-yl)-2-oxo-2,3-dihydro-1H-benzo[d]imidazol-1-yl)piperidin-1-yl)acetamide]	21.1 µM	177 nM
COc1cc(-c2cc3[nH]c(=O)n([C@@H]4CCCN(C5CCOCC5)C4)c3cc2C)cn2ncnc12 [Example 70, (R)-5-(8-methoxy-[1,2,4]triazolo[1,5-a]pyridin-6-yl)-6-methyl-1-(1-(tetrahydro-2H-pyran-4-yl)piperidin-3-yl)-1,3-dihydro-2H-benzo[d]imidazol-2-one]	17.6 µM	117 nM
COc1cc(-c2ccc3c(c2)[nH]c(=O)n3C2CCN(C3CCOC3)CC2)cn2ncnc12 (stereo not drawn) [Example 81, 5-(8-methoxy-[1,2,4]triazolo[1,5-a]pyridin-6-yl)-1-(1-(tetrahydrofuran-3-yl)piperidin-4-yl)-1,3-dihydro-2H-benzo[d]imidazol-2-one]	3.88 µM	> 3130 nM
